Results as given in patent EP0562731A1, “Substituted pyridinesulfonamide compounds or their salts, process for preparing the same, and herbicides containing the same” (ISHIHARA SANGYO KAISHA, Ltd., priority 1992, dated 1993).

Columns and labels:
Test in all cases: Test Example 1: foliar application pot test, visual growth control rating
Assay type in all cases: in vivo
Parameters in all cases: key: 1: the same as in an untreated plot; 10: perfect growth control
Conditions in all cases: wettable powder, observed 20 to 31 days after application
[1] = test system: slender amaranth (Amaranthus viridis)
Source text: (§1) 1/1,500 are [are (a) = 100 m²] pots were filled with upland farming soil, which in the pots was then sown with a variety of plants. The plants grown will be enumerated below.
(§2) When each plant reached a given growth stage (a 1.2- to 3.0-leaf stage for rice, primary leaf to a 0.7-leaf stage for soybean, 2.1- to 3.6-leaf stage for corn, cotyledon to 0.7-leaf stage for cotton, 2.0- to 3.0-leaf stage for wheat, 0.3- to 3.4-leaf stage for cocklebur, 0.3- to 1.6-leaf stage for morning glory, 0.1- to 1.3-leaf stage for prickly sida, 0.1- to 1.3-leaf stage for slender amaranth, 1.5- to 3.2-leaf stage for barnyard glass, and 1.2- to 3.0-leaf stage for large crabgrass), a predetermined amount of the herbicide of the present invention in the form of a wettable powder, weighed out, diluted with 5 ℓ/a of water and admixed with 0.2 or 0.1 vol%, based on the resulting composition, of an agricultural spreader, was foliarly applied to the plant with a small spray gun. The progress of growth of the plant was visually observed 20 to 31 days after the foliar application to evaluate the degree of growth control according to 10 ratings (1: the same as in an untreated plot - 10: perfect growth control).

[2] = test system: cocklebur (Xanthium strumarium)
Source text: as §1, §2

[3] = test system: barnyard grass (Echinochloa crus-galli)
Source text: as §1, §2

[4] = test system: corn (Zea mays)
Source text: as §1, §2

[5] = test system: prickly sida (Sida spinosa)
Source text: as §1, §2

[6] = test system: rice (Oryza sativa)
Source text: as §1, §2

[7] = test system: soybean (Glycine max)
Source text: as §1, §2

[8] = test system: large crabgrass (Digitaria adscendens)
Source text: as §1, §2

[9] = test system: wheat (Triticum)
Source text: as §1, §2

[10] = test system: morning glory (Ipomoea purpurea)
Source text: as §1, §2

Row | SMILES | degree of growth control, XA ([2]; 0.31 g/a active ingredient) | degree of growth control, XA ([2]; 1.25 g/a active ingredient) | degree of growth control, EC ([3]; 0.31 g/a active ingredient) | degree of growth control, EC ([3]; 1.25 g/a active ingredient) | degree of growth control, ZE ([4]; 0.31 g/a active ingredient) | degree of growth control, ZE ([4]; 1.25 g/a active ingredient) | degree of growth control, DI ([8]; 0.31 g/a active ingredient) | degree of growth control, DI ([8]; 1.25 g/a active ingredient) | degree of growth control, IP ([10]; 0.31 g/a active ingredient) | degree of growth control, IP ([10]; 1.25 g/a active ingredient) | other results
1 | CCN(c1cccc(S(=O)(=O)NC(=O)Nc2nc(OC)nc(OC)n2)n1)S(=O)(=O)C(C)Cl (racemic) [Compound No. 55, 6-[[N-(1-chloroethylsulfonyl)-N-ethyl]amino]-N-[[(4,6-dimethoxytriazin-2-yl)amino]carbonyl]-2-pyridinesulfonamide] | 10 | 10 | 10 | 10 | 10 | 10 | – | – | – | – | degree of growth control, AM ([1]; 0.31 g/a active ingredient): 6; degree of growth control, AM ([1]; 1.25 g/a active ingredient): 6; degree of growth control, SI ([5]; 0.31 g/a active ingredient): 6; degree of growth control, SI ([5]; 1.25 g/a active ingredient): 6; degree of growth control, OR ([6]; 0.31 g/a active ingredient): 9; degree of growth control, OR ([6]; 1.25 g/a active ingredient): 9
2 | CCN(c1cccc(S(=O)(=O)NC(=O)Nc2nc(C)nc(OC)n2)n1)S(=O)(=O)C(C)F (racemic) [compound 58] | – | – | – | – | – | – | 7 | 7 | – | – | degree of growth control, GL ([7]; 0.31 g/a active ingredient): 1; degree of growth control, GL ([7]; 1.25 g/a active ingredient): 1; degree of growth control, TR ([9]; 0.31 g/a active ingredient): 2; degree of growth control, TR ([9]; 1.25 g/a active ingredient): 2
3 | CCN(c1cccc(S(=O)(=O)NC(=O)Nc2nc(C)nc(OC)n2)n1)S(=O)(=O)C(C)Br (racemic) [compound 78] | 10 | 10 | 10 | 10 | 10 | 10 | – | – | 10 | 10 | –
4 | CCC(C)N(c1cccc(S(=O)(=O)NC(=O)Nc2nc(C)nc(OC)n2)n1)S(=O)(=O)CC(C)C (racemic) [compound 80] | 6 | 6 | – | – | – | – | 2 | 2 | 5 | 5 | degree of growth control, SI ([5]; 0.31 g/a active ingredient): 3; degree of growth control, SI ([5]; 1.25 g/a active ingredient): 3
5 | CCCCS(=O)(=O)N(c1cccc(S(=O)(=O)NC(=O)Nc2nc(C)nc(OC)n2)n1)C(C)CC (racemic) [compound 84] | – | – | 5 | 5 | – | – | – | – | 6 | 6 | –
6 | COc1nc(C)nc(NC(=O)NS(=O)(=O)c2cccc(N(C)S(=O)(=O)C(C)Cl)n2)n1 (racemic) [compound 85] | – | – | 10 | 10 | 10 | 10 | – | – | – | – | –
7 | CCCN(c1cccc(S(=O)(=O)NC(=O)Nc2nc(C)nc(OC)n2)n1)S(=O)(=O)C(C)Cl (racemic) [compound 86] | – | – | 10 | 10 | 10 | 10 | – | – | 10 | 10 | –
8 | COc1nc(C)nc(NC(=O)NS(=O)(=O)c2cccc(N(C(C)C)S(=O)(=O)C(C)Cl)n2)n1 (racemic) [compound 93] | 10 | 10 | – | – | – | – | – | – | 9 | 9 | degree of growth control, AM ([1]; 0.31 g/a active ingredient): 9; degree of growth control, AM ([1]; 1.25 g/a active ingredient): 9; degree of growth control, OR ([6]; 0.31 g/a active ingredient): 9; degree of growth control, OR ([6]; 1.25 g/a active ingredient): 9
9 | CCN(c1cccc(S(=O)(=O)NC(=O)Nc2nc(C)nc(OC)n2)n1)S(=O)(=O)C(C)C [Compound No. 1, 6-[(N-ethyl-N-isopropylsulfonyl)amino]-N-[[(4-methoxy-6-methyltriazin-2-yl)amino]carbonyl]-2-pyridinesulfonamide] | – | – | – | – | – | – | 8 | 8 | – | – | degree of growth control, AM ([1]; 0.31 g/a active ingredient): 10; degree of growth control, AM ([1]; 1.25 g/a active ingredient): 10; degree of growth control, TR ([9]; 0.31 g/a active ingredient): 8; degree of growth control, TR ([9]; 1.25 g/a active ingredient): 8
10 | CCN(c1cccc(S(=O)(=O)NC(=O)Nc2nc(OC)nc(OC)n2)n1)S(=O)(=O)C(C)C [Compound No. 2, 6-[(N-ethyl-N-isopropylsulfonyl)amino]-N-[[(4,6-dimethoxytriazin-2-yl)amino]carbonyl]-2-pyridinesulfonamide] | 10 | 10 | – | – | – | – | – | – | – | – | degree of growth control, AM ([1]; 0.31 g/a active ingredient): 10; degree of growth control, AM ([1]; 1.25 g/a active ingredient): 10
11 | CCCN(c1cccc(S(=O)(=O)NC(=O)Nc2nc(OC)nc(OC)n2)n1)S(=O)(=O)C(C)C [Compound No. 5] | 10 | 10 | 10 | 10 | – | – | – | – | – | – | –
12 | CCN(c1cccc(S(=O)(=O)NC(=O)Nc2nc(OC)nc(OC)n2)n1)S(=O)(=O)C(Cl)Cl [Compound No. 57, 6-[(N-dichloromethylsulfonyl-N-ethyl)amino]-N-[[(4,6-dimethoxytriazine-2-yl)amino]carbonyl]-2-pyridinesulfonamide] | 10 | 10 | – | – | – | – | 9 | 9 | 10 | 10 | degree of growth control, TR ([9]; 0.31 g/a active ingredient): 6; degree of growth control, TR ([9]; 1.25 g/a active ingredient): 6
13 | COc1nc(C)nc(NC(=O)NS(=O)(=O)c2cccc(N(OC)S(=O)(=O)C(C)C)n2)n1 [compound 41] | – | – | 10 | 10 | 10 | 10 | – | – | – | – | –
14 | CCN(c1cccc(S(=O)(=O)NC(=O)Nc2nc(C)nc(OC)n2)n1)S(=O)(=O)C(Cl)Cl [compound 56] | 10 | 10 | 10 | 10 | 10 | 10 | 10 | 10 | – | – | degree of growth control, TR ([9]; 0.31 g/a active ingredient): 10; degree of growth control, TR ([9]; 1.25 g/a active ingredient): 10; degree of growth control, OR ([6]; 0.31 g/a active ingredient): 9; degree of growth control, OR ([6]; 1.25 g/a active ingredient): 9
15 | CCN(c1cccc(S(=O)(=O)NC(=O)Nc2nc(C)nc(OC)n2)n1)S(=O)(=O)C(C)(C)Cl [compound 87] | 10 | 10 | – | – | – | – | – | – | – | – | –
16 | COc1nc(C)nc(NC(=O)NS(=O)(=O)c2cccc(N(C)S(=O)(=O)C(Br)(Br)Br)n2)n1 [compound 89] | 10 | 10 | – | – | – | – | 7 | 7 | – | – | –
17 | CCN(c1cccc(S(=O)(=O)NC(=O)Nc2nc(C)nc(OC)n2)n1)S(=O)(=O)C(Br)(Br)Br [compound 90] | 10 | 10 | 10 | 10 | – | – | 6 | 6 | – | – | degree of growth control, SI ([5]; 0.31 g/a active ingredient): 6; degree of growth control, SI ([5]; 1.25 g/a active ingredient): 6
18 | CCN(c1cccc(S(=O)(=O)NC(=O)Nc2nc(C)nc(OC)n2)n1)S(=O)(=O)C(Cl)(Cl)Cl [compound 91] | 10 | 10 | – | – | – | – | – | – | 9 | 9 | degree of growth control, TR ([9]; 0.31 g/a active ingredient): 9; degree of growth control, TR ([9]; 1.25 g/a active ingredient): 9; degree of growth control, OR ([6]; 0.31 g/a active ingredient): 9; degree of growth control, OR ([6]; 1.25 g/a active ingredient): 9
